One data set concerns VEGF. As to the kind of experiment: VEGF ELISA Assay in HEK293 cells. Type of data set: cell-based. The following applies: Homo sapiens. The procedure:
HEK293 cells are seeded in 96-well poly-lysine coated plates at 20,000 cells per well in DMEM (10% FBS, 1% NEAA, 0.1% glutamine). Following overnight incubation, the cells are washed with 100 μL of Opti-MEM (Gibco, Carlsbad, Calif.) to remove serum. Compound in DMSO is serially diluted (beginning with 100 μM) in Opti-MEM and added to the cells. The conditioned media is analyzed for VEGF with a Quantikine human VEGF immunoassay kit (R&D Systems, Minneapolis, Minn.). Optical density measurements at 450 nm are recorded using the Spectra Max 250 (Molecular Devices, Sunnyvale, Calif.). Data defined as % of DFO stimulation is used to calculate EC50 values with GraphPad Prism 4 software (San Diego, Calif.).
(In general: An ELISA detects its analyte on a solid surface through an enzyme-linked reagent.)

A short description of data set [1]: Solubility of salts in distilled deionized water (HPLC). In kind it is physicochemical. The procedure: The formulator can determine the solubility of the pharmaceutically acceptable salts of the disclosed inhibitors by any method desirable. The following is a non-limiting example of a procedure for evaluating the solubility of a salt of a disclosed inhibitor. A suspension of tert-butyl-{[1-(4-chlorobenzyl)-3-hydroxy-2-oxo-1,2-dihydropyridin-4-yl]methyl}-piperazine-1-carboxylate methanesulfonate (26.6 mg) in distilled deionized water (3.0 mL) is sonicated for 20 min with water bath temperature under 25° C. The suspension is filtered to remove any insoluble salt. The clear filtrate solution (200 μL) is diluted with distilled deionized water (800 μL) and subjected to HPLC analysis. The following are results for the pharmaceutically acceptable salts outlined in Table VII above.

For data set [2], the system named is phosphoglycerate kinase (PGK) expression. As to the kind of experiment: PGK expression in murine embryonic fibroblasts. Type of data set: cell-based. The following applies: wild type murine embryonic fibroblasts, 1 μM and 10 μM (FIG. 12). The procedure: FIG. 11 depicts the up regulation of phosphoglycerate kinase (PGK) expression in wild type murine embryonic fibroblasts as a result of treatment with compound a compound disclosed in Table VIII at dosages of 1 μM (E), 10 μM (F), and 50 μM (G) vs. wild type control (H) and the lack of up regulation of PGK expression in HIF-1 knock out cells as a result of treatment with a compound disclosed in Table VIII at dosages of 1 μM (A), 10 μM (B), and 50 μM (C) and HIF-1 knock out control (D). Both cell types were treated for 7 hours.

The subject of a further data set is EPO. As to the kind of experiment: Mouse Serum EPO Assay. Type of data set: in vivo. The procedure:
All animal work is conducted in accordance with the Guide for the Care and Use of Laboratory Animals (National Academy of Sciences; Copyright © 1996). Used in these experiments were 9-10 week old male C57Bl/6 mice from Charles River Laboratory (Portage, Mich.). The mice are orally dosed with vehicle (aqueous carbonate buffer, 50 mM; pH 9.0) or with the compound to be tested in vehicle at 50 mg/kg or 100 mg/kg. The animals are dosed three times: day 1 at 8 AM and 5 PM, and on day 2 at 8 AM. One hour after the first dose, unilateral arterial ligation is performed under anesthesia using isoflurane. The femoral artery is ligated proximal to the origin of the popliteal artery. The contralateral limb undergoes a sham surgical procedure. Ligation is performed in an alternating fashion between right and left hindlimbs. Two hours after the 8 AM dosing on day 2, blood is obtained by ventricular stick while the mice are anesthetized with isoflurane. Serum samples for EPO analysis are obtained using gel clot serum separation tubes. Heart, liver, and gastrocnemius muscles are harvested, snap-frozen in liquid nitrogen, and stored in −80° C. until use.
The mouse serum EPO is detected using Mouse Quantikine Erythropoietin ELISA kit from R&D Systems according to manufacturer's instructions.

A further data set has as its system Staphylococcus aureus. The note with it: dose-dependent; cited from earlier work.
In another data set the test system is S. aureus. The note with it: murine model of S. aureus skin infection; cited from earlier work.
Setting [3] is: HEK293 cells, head prints IC50, method calculates EC50 from % of DFO stimulation, read-out: VEGF IC50.

Molecules are shown by their SMILES. Structures can show the parent of a compound that is named as a salt. Where two headings read alike, the source gives them in different places. Some results are limits rather than exact numbers.

For orientation: IC50 means the concentration at which inhibition is half-maximal. On to `COc1ccccc1Cn1ccc(CN2CCCCCC2)c(O)c1=O` [Compound A18, 1-(2-methoxybenzyl)-3-hydroxy-4-(azepan-1-ylmethyl)pyridin-2(1H)-one], for which, in the data set on VEGF (setting [3]), the IC50 was 29.2 µM.

A word on the Solubility: it is the dissolved amount per volume that the medium holds. Consider `CC(C)(C)OC(=O)N1CCN(Cc2ccn(Cc3ccc(Cl)cc3)c(=O)c2O)CC1` [Compound A41, tert-butyl 4-{[1-(4-chlorobenzyl)-3-hydroxy-2-oxo-1,2-dihydropyridin-4-yl]methyl}piperazine-1-carboxylate], for which the “Solubility” value in data set [1] (distilled deionized water, sonicated 20 min, under 25° C., listed as Free base) is approximately 1 µg/mL. In addition, the 50% inhibitory concentration (IC50) in the data set with VEGF (HEK293, read-out: VEGF IC50 (μM)) turned out to be 16.6 µM. With `COC[C@H]1CCCN1Cc1ccn(Cc2ccccc2)c(=O)c1O` [Compound B5, (R)-1-benzyl-3-hydroxy-4-{[2-(methoxymethyl)pyrrolidin-1-yl]methyl}pyridin-2(1H)-one], the IC50 with VEGF (setting [3]) was 53 µM. Turning to `O=c1c(O)c(CN2CCN(Cc3ccccc3)CC2)ccn1Cc1ccccc1` [Compound B9, 1-benzyl-3-hydroxy-4-[(4-benzyipiperazin-1-yl)methyl]pyridin-2(1H)-one], the IC50 in the data set with VEGF (setting [3]) was 12.6 µM. `O=c1c(O)c(CN2CCN(c3ccc(Cl)nn3)CC2)ccn1Cc1ccccc1` [Compound B14, 1-benzyl-3-hydroxy-4-{[4-(6-chloropyridazin-3-yl)piperazin-1-yl]methyl}pyridin-2(1H)-one]: the IC50 in the data set on VEGF (setting [3]) was 78 µM.

As for `O=c1c(O)c(CNCc2ccccc2)ccn1Cc1ccc(Cl)cc1` [Compound C1, 1-(4-chlorobenzyl)-3-hydroxy-4-[(4-benzylamino)methyl]pyridin-2(1H)-one], in the data set with VEGF (setting [3]), the half-inhibitory concentration (IC50) was 42 µM. For the molecule `CC1CCC(NCc2ccn(Cc3ccccc3)c(=O)c2O)CC1` (centres unmarked) [Compound C17, 1-benzyl-3-hydroxy-4-[(4-methylcyclohexylamino)methyl]pyridin-2(1H)-one], the IC50 in the data set on VEGF (setting [3]) is 27.4 µM. In the case of `O=C1NCCCCC1NCc1ccn(Cc2ccccc2)c(=O)c1O` (centres unmarked) [Compound C19, 3-[(1-benzyl-3-hydroxy-2-oxo-1,2-dihydropyridin-4-yl)methylamino]azepan-2-one], in the data set with VEGF (setting [3]), the IC50 was 62.9 µM. Take `CSCCNCc1ccn(Cc2ccccc2)c(=O)c1O` [Compound C33, 1-benzyl-3-hydroxy-4-{[2-(methylthio)ethylamino]methyl}pyridin-2(1H)-one]: the IC50 with VEGF (setting [3]) is 53 µM. Still for that read-out and setting: next, `Cc1ccc(S(=O)(=O)n2ccc(CN3CCC(N4CCCCC4)CC3)c(O)c2=O)cc1` [Compound D10, 1-[(4-methylphenyl)sulfonyl]-3-hydroxy-4-(1,4′-bipiperidin-1′-ylmethyl)pyridin-2(1H)-one]: 27 µM; `Cc1ccc(S(=O)(=O)n2ccc(CN3CCN(c4ccc(Cl)nn4)CC3)c(O)c2=O)cc1` [Compound D14, 1-[(4-methylphenyl)sulfonyl]-3-hydroxy-4-{[4-(6-chloropyridazin-3-yl)piperazin-1-yl]methyl}pyridin-2(1H)-one]: 19 µM.

The term EC50 denotes the concentration giving half of the maximal effect. Low readings indicate a more potent agent, high ones a less potent agent. For `O=c1c(O)cccn1Cc1cccc(Cl)c1` [Compound F2, 1-(3-chlorobenzyl)-3-hydroxypyridin-2(1H)-one], in data set [2], the PGK expression result is reported as “up regulation”. This molecule also yielded a concentration giving a half-maximal response (EC50) in the data set on EPO of 14 µM. The IC50 in the data set on VEGF (setting [3]) was more than 100 µM. As for `O=c1c(O)cccn1Cc1ccc(Cl)cc1` [Compound F3, 1-(4-chlorobenzyl)-3-hydroxypyridin-2(1H)-one], in the data set with VEGF (setting [3]), the IC50 is 7.4 µM.

Consider `CC(C)(C)OC(=O)N1CCN(Cc2ccn(Cc3ccc(Cl)cc3)c(=O)c2O)CC1` [hydrochloride, tert-butyl-{[1-(4-chlorobenzyl)-3-hydroxy-2-oxo-1,2-dihydropyridin-4-yl]methyl}-piperazine-1-carboxylate], for which the “Solubility” value in data set [1] is 5900 µg/mL. Turning to `NC(Cn1ccc(=O)c(O)c1)C(=O)O` (centres unmarked) [mimosine], the “capacity of human phagocytes and whole blood to kill Staphylococcus aureus” value in the data set with Staphylococcus aureus is given as “boost”. Further, in the data set with S. aureus, the lesion size result is “reduce the lesion size”. For the molecule `CC(C)(C)OC(=O)N1CCN(Cc2ccn(Cc3ccc(Cl)cc3)c(=O)c2O)CC1` [p-toluenesulfonate, tert-butyl-{[1-(4-chlorobenzyl)-3-hydroxy-2-oxo-1,2-dihydropyridin-4-yl]methyl}-piperazine-1-carboxylate], in data set [1], the “Solubility” value came out at 2300 µg/mL.

Values taken from US10562854B2, “Prolyl hydroxylase inhibitors” (Aerpio Therapeutics, Inc., priority 2009, dated 2020).
